The source of these data is ChEMBL document CHEMBL1201862, “PubChem BioAssay data set” (2004).

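Five compound concentrations were applied to cells in 96-well plates for 48 hours; endpoints were derived by simple linear interpolation of the resulting dose-response curve. GI50 is the concentration that inhibits growth by half.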 Activity calls are given as the source filed them. No stated cut-off is given here; in the data, active = GI50 up to about 1.1 µM and inactive = higher. Where only a bound is given, the exact number is not on record here.

Test systems include MDA-N; DMS-273; KM-20L2; HOP-18; DLD-1; LXFL 529; SNB-78; XF498; RXF 631.
What all share (experiment): growth of human tumour cells (NCI), 48 h

As for `CC(=O)Oc1cc(S(=O)(=O)Nc2n[nH]c(Nc3ccc(C)cc3)n2)c(S)cc1Cl`, the GI50 with MDA-N is > 100 µM (inactive).

Consider `Cc1cc(S(=O)(=O)Nc2nnc3cc(C(F)(F)F)cc(C)n23)c(S)cc1Cl`, for which the GI50 in the test on MDA-N is > 100 µM (inactive).

With `O=C(O)c1cc(C(=O)O)nc(C(=O)O)c1`, the GI50 in the test with MDA-N is > 100 µM (inactive).

Consider `Cc1ccc(-c2nc3cc([N+](=O)[O-])ccc3[nH]2)cc1`, for which the GI50 in the test with MDA-N was > 100 µM (inactive).

As to `N=C1c2ccccc2C(=O)c2c(NCCNCCO)ccc(O)c21`, the GI50 was 5.57 µM (inactive) in the test with DMS-273; 5 µM (inactive) in the test on KM-20L2; 11.5 µM (inactive) with HOP-18; 5.92 µM (inactive) in the test on DLD-1; 6.5 µM (inactive) with LXFL 529; 18.8 µM (inactive) with SNB-78.

For the compound `Nc1nc2c(C(=O)NCc3cccs3)nnn2c2cccc(Cl)c12`, the GI50 in the test with MDA-N was > 100 µM (inactive).

Turning to `CC[P+](c1ccccc1)(N(C)C)N(C)C`, the GI50 in the test on MDA-N is > 100 µM (inactive).

For the compound `CC(C)C1OC(/C=C/c2ccccc2)OCC1(C)C` (stereo not given), the GI50 with MDA-N is 36.3 µM (inactive).

For `COc1c(O)c2ccccc2c2cc(O)ccc12`, the GI50 is 6.65 µM (inactive) in the test on DMS-273; 22.5 µM (inactive) in the test with KM-20L2; 1.08 µM (active) in the test with MDA-N; 1.75 µM (inactive) with HOP-18; 8.79 µM (inactive) with DLD-1; 2.59 µM (inactive) in the test with LXFL 529. The GI50 with XF498 is 2.69 µM (inactive); with SNB-78, 15.5 µM (inactive).

As for `CCOC(=O)Cc1nc2nn(Cc3ccccc3)cc2c(=O)[nH]1`, in the test with MDA-N, the GI50 was > 100 µM (inactive).

With `CN(C)c1ccc2nc3c(C(=O)O)cc(O)c(O)c3[o+]c2c1`, in the test on MDA-N, the GI50 is 23.1 µM (inactive).

With `O=P1(Oc2ccccc2)N=P(c2ccccc2)(c2ccccc2)C=C(c2ccc(Cl)cc2)N1` (stereo not given), in the test with MDA-N, the GI50 was 8.87 µM (inactive).

With `COC(=O)[C@@H]1CN(C(=O)CCc2ccccc2)C(=O)N1`, the GI50 in the test on MDA-N was > 100 µM (inactive).

With `Cc1c2c(c(O)c3c(O)cccc13)C(=O)C1(O)C(=O)C(C(=O)NCNc3ccc(C(N)=O)cn3)=C(O)C(N(C)C)C1C2` (stereo not given), in the test with MDA-N, the GI50 is 4.49 µM (inactive).

`COc1ccc(N2C(=O)CSC2c2cc(OC)c(OC)c(OC)c2)cc1` (stereo not given): the GI50 in the test on MDA-N is 9.68 µM (inactive).

With `C/C(=N/NC(=O)C[n+]1ccccc1)C(CN(CC(C)C)CC(C)C)C(=O)Nc1ccc(C)cc1C` (stereo not given), the GI50 in the test with RXF 631, in the test with KM-20L2 and in the test on DLD-1 was > 100 µM (inactive) in each case.

As for `COc1ccc(N(C)CN(C)c2nc(N(C)C)nc(N(C)C)n2)cc1`, the GI50 in the test on DMS-273, in the test on KM-20L2, in the test with HOP-18, with DLD-1, with LXFL 529 and in the test with SNB-78 was > 100 µM (inactive) throughout.

Turning to `c1ccc(C(CCN2CCCC2)c2ccccn2)cc1` (stereo not given), in the test with MDA-N, the GI50 was > 100 µM (inactive).

Regarding `O=C(N/N=C/c1c(-c2ccccc2)no[n+]1[O-])N1CCOCC1`, in the test with MDA-N, the GI50 is > 100 µM (inactive).

For `Cc1c(C=C(C#N)C#N)c(=O)n(C)c(=O)n1C`, in the test on MDA-N, the GI50 is > 100 µM (inactive).

Regarding `O=C1C=C(Nc2cccnc2)c2ccccc2/C1=N/O`, the GI50 with MDA-N is 12.6 µM (inactive).

For the compound `COC(=O)[C@]1(C)CCC[C@@]2(C)C1CCC1=C[C@@]3(C(C)C)CC[C@]12OO3` (stereo not given in full), the GI50 was 22.6 µM (inactive) in the test with RXF 631; 25.7 µM (inactive) with DMS-273; > 10 µM (inactive) with KM-20L2; 24.2 µM (inactive) in the test on DLD-1; 23.2 µM (inactive) with LXFL 529; 54.3 µM (inactive) with SNB-78.

`C=CCn1c(=O)c2ccccc2[n+]2c(-c3cccc([N+](=O)[O-])c3)csc12`: the GI50 in the test with MDA-N is 66.2 µM (inactive).

In the case of `Nc1c(-c2ccc(Cl)c(Cl)c2)c2ccc([N+](=O)[O-])cc2c(=O)n1-c1nc2ccccc2s1`, the GI50 with MDA-N is 0.697 µM (active).

In the case of `COc1cccc(/C(Cl)=C(\C=O)c2cccc(OC)c2)c1`, the GI50 in the test with DMS-273 was 8.17 µM (inactive); in the test on KM-20L2 it was 20.9 µM (inactive); with HOP-18, 16.4 µM (inactive); in the test on DLD-1, 8.43 µM (inactive); with LXFL 529, 5.65 µM (inactive); with XF498, 13.8 µM (inactive). For the same compound, the GI50 in the test on SNB-78 was 4.24 µM (inactive).

Take `O=c1cc(-c2ccccc2)[nH]c2ccc(N3CCOCC3)cc12`: the GI50 with MDA-N was < 0.01 µM (active).

In the case of `Cc1n(Cc2ccccc2)c2c([n+]1C)C(=O)c1ccccc1C2=O`, in the test with MDA-N, the GI50 was 0.173 µM (active).

Consider `CC(C)(C)c1cc2c3c(c1)c(=O)c1cccc4c(O)c5cccc(c2=O)c5c-3c41`, for which the GI50 in the test on DMS-273 was 26.1 µM (inactive); with KM-20L2 it was 33.2 µM (inactive); with HOP-18, > 100 µM (inactive); in the test on DLD-1 it was 61 µM (inactive); in the test with LXFL 529 it was > 100 µM (inactive); with XF498 it was 35.5 µM (inactive).

On to `CN1CCC23c4c5ccc(O)c4OC2c2[nH]c4ccccc4c2CC3(O)C1C5` (stereo not given), for which the GI50 in the test with MDA-N is 20 µM (inactive).

For the compound `COc1c(C)c(O)c2c(c1C)OC(c1ccccc1)CC2=O` (stereo not given), the GI50 with DMS-273 is 59.6 µM (inactive); with KM-20L2, 31.6 µM (inactive); in the test with HOP-18 it was 25 µM (inactive); in the test on DLD-1, 66.1 µM (inactive); in the test with LXFL 529, 35.2 µM (inactive); in the test with SNB-78, > 100 µM (inactive).
